11 compounds from publication PMC6269039, “Synthesis and Cytotoxicity Testing of New Amido-Substituted Triazolopyrrolo[2,1-c][1,4]benzodiazepine (PBDT) Derivatives” (Molecules, 2012) can be followed below.

Data set [1] deals with Mahlavu cells. The data set is described as follows: cells. The following applies: Homo sapiens, 48 h; for viability at 100 µM: read-out: percentage of viable Mahlavu cells (cell viability); for IC50: read-out: IC50 for Mahlavu cells.
Description: (§1) The cytotoxic activities of the newly synthesized amido-substituted triazolopyrrolo [2,1-c][1,4]benzodiazepines PBDT-7a–k were tested against Mahlavu and MRC-5 cells. After incubation of the cells with the compounds at concentrations of 3.12, 6.25, 12.50, 25.0, 50.0 and 100 µM for 48 h, the cell growth and viability were assessed by using CCK-8 assay.
(§2) Human hepatocellular carcinoma (Mahlavu) epithelial cells were used for cell culture experiments. Cells were cultured with 90% Dulbecco’s modified Eagle’s medium with 10% fetal bovine serum, 100 U/mL penicillin, and 100 μg/mL streptomycin. The cells were placed in an incubator to maintain high humidity, a temperature of 37 °C, and 5% CO2 for cell culture experiments. Cells were routinely sub-passaged in a 1:4 to 1:6 split using 0.25% trypsin.
(§3) The cell viability was determined using a CCK-8 assay following the manufacturer’s instructions. Mahlavu cells and MRC-5 cells were seeded in 96-well plates and allowed to attach overnight at 37 °C. Cells were treated with PBDT-7a–k in 0.1% FBS MEM or DMEM (100 μL/well), and the cells were incubated for 48 h in a humidified atmosphere. After the incubation period, 10 μL of cell Counting Kit-8 solution was added to the medium, and the cells were incubated for an additional 1–4 h in the incubator. The absorbance at 450 nm was then measured using a microplate reader. The IR was calculated using the following equation: IR = [1 − (A value for the treated samples − A value for the blank samples)/(A value for the control samples − A value for the blank samples)] × 100%. The assays were performed in triplicate and repeated at least twice.
(§4) Mahlavu cells were treated with PBDT-7 series compounds for 48 h, and survival was assessed using a CCK-8 assay (mean ± SEM, n = 6).
Another data set is described as follows: in vitro. The following applies: human.
Data set [2] deals with Mahlavu cells. The conditions noted are these: 48 h, CCK-8; for effect on viability of Mahlavu cells, in words: 100 µM.
Description: as §1, §2, §3, §4
In the next data set the test system is MRC-5 cells. The data set is described as follows: CCK-8 cytotoxicity assay, MRC-5 cells. The following applies: 48 h. A general note: Formazan colour is commonly taken as a measure of viable cells.

Description for MRC-5 cells: (§5) After incubation of the cells with the compounds at concentrations of 3.12, 6.25, 12.50, 25.0, 50.0 and 100 µM for 48 h, the cell growth and viability were assessed by using CCK-8 assay.
(§6) Human fibroblast cells (MRC-5) cells were used for cell culture experiments. Cells were cultured with 90% Eagle’s minimum essential medium with 2 mM L-glutamine and Earle’s BSS adjusted to contain 1.5 g/L sodium bicarbonate, 0.1 mM non-essential amino acids, 1.0 mM sodium pyruvate with 10% fetal bovine serum, 100 U/mL penicillin, and 100 μg/mL streptomycin. The cells were placed in an incubator to maintain high humidity, 37 °C, and 5% CO2 for the cell culture experiments. Cells were routinely sub-passaged in a 1:2 to 1:5 split using 0.25% trypsin.
(§7) The cell viability was determined using a CCK-8 assay following the manufacturer’s instructions. Mahlavu cells and MRC-5 cells were seeded in 96-well plates and allowed to attach overnight at 37 °C. […] After the incubation period, 10 μL of cell Counting Kit-8 solution was added to the medium, and the cells were incubated for an additional 1–4 h in the incubator. The absorbance at 450 nm was then measured using a microplate reader. The IR was calculated using the following equation: IR = [1 − (A value for the treated samples − A value for the blank samples)/(A value for the control samples − A value for the blank samples)] × 100%. The assays were performed in triplicate and repeated at least twice.
Description for in vitro: as §5, §6, §7

As to `CC(C)(C)C(=O)Nc1nnc2n1-c1ccccc1C(=O)N1CCC[C@@H]21` [PBDT-7a, ((13aS)-9-Oxo-11,12,13,13a-tetrahydro-9H-benzo[e]pyrrolo[1,2-a][1,2,4]triazolo[3,4-c][1,4]diazepin-3-yl)pivalamide], the melting point (commonly the temperature of the solid-liquid transition) fell in the range of 213 to 215 °C. The viability (in general, a read-out of living cells in per cent, often relative to untreated cells) at 100 µM in the data set with Mahlavu cells [1] is greater than 75%. Besides, in “in vitro”, the viability at 48 h, 100 µM was greater than 75%.
For the compound `O=C(Nc1nnc2n1-c1ccccc1C(=O)N1CCC[C@@H]21)c1ccccc1` [PBDT-7b, N-((13aS)-9-Oxo-11,12,13,13a-tetrahydro-9H-benzo[e]pyrrolo[1,2-a][1,2,4]triazolo[3,4-c][1,4]diazepin-3-yl)benzamide], the melting point was 173 to 175 °C. Besides, the viability at 100 µM in the data set with Mahlavu cells [1] was greater than 75%. For the same compound, the viability at 48 h, 100 µM in “in vitro” is greater than 75%.
Consider `O=C(Nc1nnc2n1-c1ccccc1C(=O)N1CCC[C@@H]21)c1ccccc1F` [PBDT-7c, 2-Fluoro-N-((13aS)-9-oxo-11,12,13,13a-tetrahydro-9H-benzo[e]pyrrolo[1,2-a][1,2,4]triazolo[3,4-c][1,4]diazepin-3-yl)benzamide], for which the “effect on viability of Mahlavu cells, in words” value with Mahlavu cells [2] is “little effect”.
For `O=C(Nc1nnc2n1-c1ccccc1C(=O)N1CCC[C@@H]21)c1cccc(F)c1` [PBDT-7d, 3-Fluoro-N-((13aS)-9-oxo-11,12,13,13a-tetrahydro-9H-benzo[e]pyrrolo[1,2-a][1,2,4]triazolo[3,4-c][1,4]diazepin-3-yl)benzamide], the melting point was in the range of 159 to 160 °C. Further, the viability at 100 µM in the data set with Mahlavu cells [1] was roughly 61%.
With `O=C(Nc1nnc2n1-c1ccccc1C(=O)N1CCC[C@@H]21)c1ccc(F)cc1` [PBDT-7e, 4-Fluoro-N-((13aS)-9-oxo-11,12,13,13a-tetrahydro-9H-benzo[e]pyrrolo[1,2-a][1,2,4]triazolo[3,4-c][1,4]diazepin-3-yl)benzamide], the “effect on viability of Mahlavu cells, in words” value in the data set on Mahlavu cells [2] is “little effect”.
`COc1cccc(C(=O)Nc2nnc3n2-c2ccccc2C(=O)N2CCC[C@@H]32)c1` [PBDT-7f, 3-Methoxy-N-((13aS)-9-oxo-11,12,13,13a-tetrahydro-9H-benzo[e]pyrrolo[1,2-a][1,2,4]triazolo[3,4-c][1,4]diazepin-3-yl)benzamide] returned a melting point of 168 to 170 °C. Moreover, the viability at 100 µM in the data set with Mahlavu cells [1] came out at 37%.
`N#Cc1cccc(C(=O)Nc2nnc3n2-c2ccccc2C(=O)N2CCC[C@@H]32)c1` [PBDT-7g, 3-Cyano-N-((13aS)-9-oxo-11,12,13,13a-tetrahydro-9H-benzo[e]pyrrolo[1,2-a][1,2,4]triazolo[3,4-c] [1,4]diazepin-3-yl)benzamide] registered a melting point of 245 to 246 °C. In the data set on Mahlavu cells [1], the IC50 – broadly, the point on the concentration scale where inhibition reaches its midpoint – turned out to be 50 µM and the viability at 100 µM is 36%.
Turning to `O=C(Nc1nnc2n1-c1ccccc1C(=O)N1CCC[C@@H]21)c1cccc(Cl)c1` [PBDT-7h, 3-Chloro-N-((13aS)-9-oxo-11,12,13,13a-tetrahydro-9H-benzo[e]pyrrolo[1,2-a][1,2,4]triazolo[3,4-c][1,4]diazepin-3-yl)benzamide], the “survival rate of Mahlavu cells” value with Mahlavu cells [2] (50 µM) is on record as “below 50%”. The “inhibition of Mahlavu cells, in words” value in the data set with Mahlavu cells [2] is “potent inhibitor”. In addition, in the data set on MRC-5 cells, the “toxicity to MRC-5 (normal) cells, in words” value is reported as “highly toxic”.
Regarding `O=C(Nc1nnc2n1-c1ccccc1C(=O)N1CCC[C@@H]21)c1cccc(C(F)(F)F)c1` [PBDT-7i, N-((13aS)-9-Oxo-11,12,13,13a-tetrahydro-9H-benzo[e]pyrrolo[1,2-a][1,2,4]triazolo[3,4-c][1,4]diazepin-3-yl)-3-(trifluoromethyl)benzamide], the “inhibition of Mahlavu cells, in words” value with Mahlavu cells [2] was “selectively inhibit the growth”. In the data set on Mahlavu cells [1], the IC50 is 50 µM and the viability at 100 µM stood at 2%. Besides, in the data set on MRC-5 cells, the “toxicity to MRC-5 (normal) cells, in words” value is reported as “low-toxic”.
In turn, `O=C(Nc1nnc2n1-c1ccccc1C(=O)N1CCC[C@@H]21)c1cccnc1` [PBDT-7j, N-((13aS)-9-Oxo-11,12,13,13a-tetrahydro-9H-benzo[e]pyrrolo[1,2-a][1,2,4]triazolo[3,4-c][1,4]diazepin-3-yl)nicotinamide] displayed a melting point of 225 °C. Also, the viability at 100 µM in the data set on Mahlavu cells [1] was greater than 75%. Further, the viability at 48 h, 100 µM in the data set “in vitro” was greater than 75%.
Regarding `O=C(Nc1nnc2n1-c1ccccc1C(=O)N1CCC[C@@H]21)c1cccs1` [PBDT-7k, N-((13aS)-9-Oxo-11,12,13,13a-tetrahydro-9H-benzo[e]pyrrolo[1,2-a][1,2,4]triazolo[3,4-c][1,4]diazepin-3-yl)thiophene-2-carboxamide], the melting point lay in the range of 185 to 186 °C. Moreover, the viability at 100 µM in the data set on Mahlavu cells [1] is greater than 75%. In the data set “in vitro”, the viability at 48 h, 100 µM was greater than 75%.
